Experimental data: patent US8591902B2, “Antibody binding to lysophosphatidylglucoside, and composition comprising the same” (Riken, priority 2010, dated 2013)

Experiments:
[1] = test system: growth cone of an NGF-dependent neuron (TrkA neuron); test: In vitro growth cone turning assay, NGF-supplemented medium; format: cell-based, chicken; conditions: for change in axon extension direction in response to concentration gradient: NGF-supplemented medium, TrkA neuron, lysophospholipid 10 μM in pipette, 45 minutes
From the text: (§1) The method described in T. Tojima et al., Nat Neurosci 10, 58-66 (January, 2007) was somewhat modified and employed to perform a primary culture of isolated DRG sensory nerves. Specifically, a chicken embryo at HH St. 29 was separated from the eggshell and decapitated. The body was transferred to ice-cooled PBS. Organs were removed from the obtained body with forceps, and the spine was exposed by ventral laminectomy. DRGs were isolated from the thoracic or lumbosacral spinal cord, broken into pieces fine watchmaker's forceps, and transferred into an L15 medium on ice. The DRG obtained by the dissection was treated with trypsin at 37° C. for 20 minutes, followed by centrifugation at 100 g for 1 minute. A minimum amount of an L15 medium was added to the pellets thus obtained, and the cells were manually suspended (repeated manual trituration). The cell suspension was again centrifuged at 100 g for 1 minute, and the supernatant was removed. Subsequently, the pellets were resuspended in a Leibovitz's L15 medium supplemented with N-2 (manufactured by Invitrogen Corp.), 750 μg/ml of BSA (manufactured by GIBCO), and 25 ng/ml of NGF or 50 ng/ml of NT-3 (manufactured by Sigma-Aldrich Corporation). The cells were seeded on glass dishes precoated with mouse-derived laminin (manufactured by Invitrogen Corp.) at […] such that the cell count would be 10,000 per dish. The dishes were placed in a culturing environment of 5% CO2 at 37° C. for approximately 2 hours before used in a growth cone turning assay.
The in vitro growth cone turning assay was conducted according to the methods described in M. Lohof, M. Quillan, Y. Dan, M. M. Poo, J Neurosci 12, 1253-61 (April, 1992), J. Q. Zheng, M. M. Poo, J. A. Connor, Perspect Dev Neurobiol 4, 205-13 (1996), and Y. Xiang et al., Nat Neurosci 5, 843-8 (September, 2002), which were somewhat modified. Specifically, lysophosphatidylcholine (manufactured by Sigma-Aldrich Corporation) or Lyso-PtdGlc prepared by a method described later was diluted with a vehicle (1% (v/v) methanol/PBS) such that the concentration would be 10 μM. […]

[2] = test system: growth cone of an NT-3-dependent neuron (TrkC neuron); test: In vitro growth cone turning assay, NT-3-supplemented medium; format: cell-based, chicken; conditions: lysophospholipid 10 μM in pipette, 45 minutes
From the text: as §1, with “The dishes were placed in a culturing environment of 5% CO2 at 37° C. for approximately 2 hours before used in a growth cone turning assay.” left out

CCCCCCCCCCCCCCCCCC(=O)OCC(O)COP(=O)(O)O[C@@H]1OC(CO)[C@@H](O)C(O)C1O (some centres unmarked) [Lyso-PtdGlc, lysophosphatidylglucoside]
change in axon extension direction in response to concentration gradient [1]: changed its extension direction | change in axon extension direction in response to concentration gradient [2]: no significant change

Lysophosphatidic acid [LPA]
chemorepellent effect on growth cone turning ([1]; in the presence of 50 μg/ml anti-Lyso-PtdGlc antibody): strong chemorepellent effect

Lysophosphatidylcholine [LPC]
change in axon extension direction in response to concentration gradient [1]: no significant influence | change in axon extension direction in response to concentration gradient [2]: no significant influence
